In article PMC12726774, “HAEEPGP Peptide Efficiently Prevents Alzheimer's Disease Pathology in Vivo” (Alzheimer's & Dementia, 2025):
Where two headings read alike, the source gives them in different places. Residues, ends and D or L forms follow the SMILES beside them. No end group written: not given here.

Experiments:
in vivo = details: mouse, plasma, iv
Excerpt: (§1) Abstract Background Currently, the only disease‐modifying therapy for Alzheimer's disease (AD) is monoclonal antibodies against beta‐amyloid (Aβ). […] Short peptides could be an alternative treatment to high‐molecular weight antibodies. They have been successfully tested against various neuropathologies. […] The disadvantage of short peptides is their rapid elimination from an organism. In this work, we added PGP amino acids to the HAEE C‐terminus to stabilize the peptide, studied the pharmacokinetics of HAEEPGP and its ability to suppress AD‐associated pathology. Method Direct interaction of HAEEPGP and Aβ peptides was measured by isothermal titration calorimetry. Pharmacokinetics and distribution to tissues of ^125I labeled HAEEPGP were studied after its intravenous injection in C57BL/6 or 5xFAD mice. HAEEPGP ability to prevent Aβ pathological effect on HMC3 microglial cells was assessed by flow cytometry and IL‐6 ELISA kit. HAEEPGP inhibition effect on AD pathology was studied in vivo using two animal models: transgenic C. elegans overexpressing human Aβ and 5xFAD mice. […] Supported by the Russian Science Foundation (grant #19‐74‐30007).

[1] = background statement, no reference given; cited from earlier work
Excerpt: They have been successfully tested against various neuropathologies. […] The disadvantage ...

Aβ = Aβ (Homo sapiens, UniProt P05067); assay: Isothermal titration calorimetry, interaction of HAEEPGP with Aβ; details: read-out: Kd of binding to Aβ
Aβ, sequence (P05067 672-713 limits assumed): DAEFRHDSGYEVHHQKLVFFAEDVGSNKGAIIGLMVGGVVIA
Excerpt: as §1

[2] = 125I labeled peptide
Excerpt: as §1

Compound | half-life (in vivo) | BBB crossing [1] | toxic effect in vivo [1] | Kd (Aβ) | BBB crossing ([2]; intravenous injection, mice) | level in the mice brain over time ([2]; during an hour post-injection, intravenous) | level in the brain, 5xFAD vs wild type mice ([2]; intravenous, 5xFAD vs C57BL/6)
C[C@H](NC(=O)[C@@H](N)Cc1c[nH]cn1)C(=O)N[C@@H](CCC(=O)O)C(=O)N[C@@H](CCC(=O)O)C(=O)O [HAEE] (H-HAEE-OH) | 17 min | able to cross the BBB | no toxic effect |  |  |  | 
HAEEPGP [HAEEPGP] | 56 ± 12 min |  |  | 1640 nM | propitiously crossed BBB | constantly increased | higher in 5xFAD than in wild type mice
